Like-named read-outs stand apart in the source and are kept apart here.
Columns and labels:
[1] = system: Zymoseptoria tritici; assay: Seed treatment, wheat leaf blotch (SEPTTR) foliar disease control; format: in vivo
[2] = system: Rhizoctonia solani; assay: Seed treatment, rice sheath blight (RHIZSO) foliar disease control; format: in vivo
[3] = system: Cochliobolus sativus; assay: Seed treatment, spot blotch of barley (COCHSA) foliar disease control; format: in vivo
[4] = system: Colletotrichum lagenarium; assay: Seed treatment, cucumber anthracnose (COLLLA) foliar disease control; format: in vivo
[5] = in vivo
Source text: The treated seeds were planted in pots containing soil-less Metro mix within 2 weeks after treatment, and resultant seedling plants were inoculated with respective pathogens as described below. Four pots of the seedlings were inoculated for each treatment rate.

[6] = system: Blumeria graminis f. sp. tritici; assay: Seed treatment, wheat powdery mildew (ERYSGT) foliar disease control; format: in vivo
[7] = system: Pseudoperonospora cubensis; assay: Seed treatment, cucumber downy mildew (PSEUCU) foliar disease control; format: in vivo
[8] = system: Blumeria graminis f. sp. hordei; assay: Seed treatment, barley powdery mildew (ERYSGH) foliar disease control; format: in vivo
[9] = system: Erysiphe cichoracearum; assay: Seed treatment, cucumber powdery mildew (ERYSCI) foliar disease control; format: in vivo
[10] = system: Phakopsora pachyrhizi; assay: Seed treatment, soybean rust (PHAKPA) foliar disease control; format: in vivo; conditions: at any rate, data not shown
[11] = system: Parastagonospora nodorum; assay: Seed treatment, wheat glume blotch (LEPTNO) foliar disease control; format: in vivo
[12] = system: Puccinia triticina; assay: Seed treatment, wheat brown rust (PUCCRT) foliar disease control; format: in vivo
[13] = system: Pyricularia oryzae; format: in vivo; conditions: for PYRIOR rating of foliar disease control: rice
[14] = system: Rhynchosporium secalis; assay: Seed treatment, barley scald (RHYNSE) foliar disease control; format: in vivo
[15] = seed treatment 3.7 g ai/100 kg seeds
[16] = seed treatment 11 g ai/100 kg seeds
[17] = seed treatment 33.3 g ai/100 kg seeds
[18] = seed treatment 100 g ai/100 kg seeds
[19] = seed treatment 300 g ai/100 kg seeds
[20] = seed treatment, summary of Table 2
[21] = seed treatment, summary of Table 5
[22] = seed treatment, summary of Table 3
[23] = seed treatment, summary of Table 4

## COc1ccnc(C(=O)N[C@@H](C)C(=O)O[C@@H](C)C(c2ccc(F)cc2)c2ccc(F)cc2)c1OC(C)=O [I, (S)-1,1-bis(4-fluorophenyl)propan-2-yl (3-acetoxy-4-methoxypicolinoyl)-L-alaninate]
[1]; [15]
  SEPTTR rating of foliar disease control: A (76-100)
[1]; [16]
  SEPTTR rating of foliar disease control: A (76-100)
[1]; [17]
  SEPTTR rating of foliar disease control: A (76-100)
[1]; [18]
  SEPTTR rating of foliar disease control: A (76-100)
[1]; [19]
  SEPTTR rating of foliar disease control: A (76-100)
[1]; [20]
  protection against leaf blotch (SEPTTR), in words: excellent protection
[2]; [15]
  RHIZSO rating of foliar disease control: D (0-25)
[2]; [16]
  RHIZSO rating of foliar disease control: D (0-25)
[2]; [17]
  RHIZSO rating of foliar disease control: D (0-25)
[2]; [18]
  RHIZSO rating of foliar disease control: D (0-25)
[2]; [19]
  RHIZSO rating of foliar disease control: D (0-25)
[2]; [21]
  activity on rice sheath blight (RHIZSO), in words: little activity
[3]; [15]
  COCHSA rating of foliar disease control: D (0-25)
[3]; [16]
  COCHSA rating of foliar disease control: D (0-25)
[3]; [17]
  COCHSA rating of foliar disease control: D (0-25)
[3]; [18]
  COCHSA rating of foliar disease control: D (0-25)
[3]; [19]
  COCHSA rating of foliar disease control: D (0-25)
[3]; [22]
  activity on spot blotch (COCHSA), in words: little activity
[4]; [15]
  COLLLA rating of foliar disease control: D (0-25)
[4]; [16]
  COLLLA rating of foliar disease control: B (51-75)
[4]; [17]
  COLLLA rating of foliar disease control: B (51-75)
[4]; [18]
  COLLLA rating of foliar disease control: A (76-100)
[4]; [19]
  COLLLA rating of foliar disease control: A (76-100)
[4]; [23]
  activity on anthracnose (COLLLA), in words: strong activity
[5]
  stunting or phytotoxicity: no evidence of stunting or phytotoxicity
[6]; [15]
  ERYSGT rating of foliar disease control: D (0-25)
[6]; [16]
  ERYSGT rating of foliar disease control: D (0-25)
[6]; [17]
  ERYSGT rating of foliar disease control: B (51-75)
[6]; [18]
  ERYSGT rating of foliar disease control: A (76-100)
[6]; [19]
  ERYSGT rating of foliar disease control: A (76-100)
[6]; [20]
  activity against powdery mildew (ERYSGT), in words: moderate activity
[7]; [15]
  PSEUCU rating of foliar disease control: D (0-25)
[7]; [16]
  PSEUCU rating of foliar disease control: D (0-25)
[7]; [17]
  PSEUCU rating of foliar disease control: D (0-25)
[7]; [18]
  PSEUCU rating of foliar disease control: D (0-25)
[7]; [19]
  PSEUCU rating of foliar disease control: D (0-25)
[7]; [23]
  activity on downy mildew (PSEUCU), in words: little activity
[8]; [15]
  ERYSGH rating of foliar disease control: D (0-25)
[8]; [16]
  ERYSGH rating of foliar disease control: A (76-100)
[8]; [17]
  ERYSGH rating of foliar disease control: A (76-100)
[8]; [18]
  ERYSGH rating of foliar disease control: A (76-100)
[8]; [19]
  ERYSGH rating of foliar disease control: A (76-100)
[8]; [22]
  activity on powdery mildew (ERYSGH), in words: excellent activity
[9]; [15]
  ERYSCI rating of foliar disease control: D (0-25)
[9]; [16]
  ERYSCI rating of foliar disease control: D (0-25)
[9]; [17]
  ERYSCI rating of foliar disease control: D (0-25)
[9]; [18]
  ERYSCI rating of foliar disease control: B (51-75)
[9]; [19]
  ERYSCI rating of foliar disease control: A (76-100)
[9]; [23]
  activity on powdery mildew (ERYSCI), in words: moderate activity
[10]
  activity on Asian soybean rust (PHAKPA), in words: no activity
[11]; [15]
  LEPTNO rating of foliar disease control: A (76-100)
[11]; [16]
  LEPTNO rating of foliar disease control: A (76-100)
[11]; [17]
  LEPTNO rating of foliar disease control: A (76-100)
[11]; [18]
  LEPTNO rating of foliar disease control: A (76-100)
[11]; [19]
  LEPTNO rating of foliar disease control: A (76-100)
[11]; [20]
  protection against glume blotch (LEPTNO), in words: excellent protection
[12]; [15]
  PUCCRT rating of foliar disease control: D (0-25)
[12]; [16]
  PUCCRT rating of foliar disease control: D (0-25)
[12]; [17]
  PUCCRT rating of foliar disease control: D (0-25)
[12]; [18]
  PUCCRT rating of foliar disease control: C (26-50)
[12]; [19]
  PUCCRT rating of foliar disease control: A (76-100)
[12]; [20]
  activity against brown rust (PUCCRT), in words: moderate activity
[13]; [15]
  PYRIOR rating of foliar disease control: B (51-75)
[13]; [16]
  PYRIOR rating of foliar disease control: B (51-75)
[13]; [17]
  PYRIOR rating of foliar disease control: A (76-100)
[13]; [18]
  PYRIOR rating of foliar disease control: A (76-100)
[13]; [19]
  PYRIOR rating of foliar disease control: A (76-100)
[13]; [21]
  activity on rice blast (PYRIOR), in words: strong activity
[14]; [15]
  RHYNSE rating of foliar disease control: D (0-25)
[14]; [16]
  RHYNSE rating of foliar disease control: D (0-25)
[14]; [17]
  RHYNSE rating of foliar disease control: C (26-50)
[14]; [18]
  RHYNSE rating of foliar disease control: B (51-75)
[14]; [19]
  RHYNSE rating of foliar disease control: A (76-100)
[14]; [22]
  activity on barley scald (RHYNSE), in words: moderate activity

Reference: patent publication US20200085050A1, “Acyclic Picolinamides as a Seed Treatment” (priority 2017, published 2020)
